From PubChem BioAssay (NCI)
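Each compound was tested at five concentrations against cells in 96-well plates for 48 hours. Here, GI50 denotes the concentration required for 50% inhibition of growth. TGI marks complete inhibition of growth.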

Experiments:
Experiment in all cases: NCI anticancer screen, dose series, 48 h; in the data active = GI50 below about 0.43 µM; inactive = the rest
OVCAR-8 ovarian = system: OVCAR-8 ovarian
786-0 renal = system: 786-0 renal
DMS 114 small cell lung = system: DMS 114 small cell lung
HOP-92 NSCLC = system: HOP-92 NSCLC
A549 NSCLC = system: A549 NSCLC
CAKI-1 renal = system: CAKI-1 renal
CCRF-CEM leukemia = system: CCRF-CEM leukemia
U251 CNS = system: U251 CNS
IGROV1 ovarian = system: IGROV1 ovarian
SW-620 colon = system: SW-620 colon
K-562 leukemia = system: K-562 leukemia
NCI-H522 lung = system: NCI-H522 lung
UO-31 renal = system: UO-31 renal
HCT-116 colon = system: HCT-116 colon
SNB-19 CNS = system: SNB-19 CNS
SF-539 CNS = system: SF-539 CNS
M14 melanoma = system: M14 melanoma
HCT-15 colon = system: HCT-15 colon
SNB-78 CNS = system: SNB-78 CNS
LXFL 529 NSCLC = system: LXFL 529 NSCLC
DMS 273 small cell lung = system: DMS 273 small cell lung
MALME-3M melanoma = system: MALME-3M melanoma
SK-OV-3 ovarian = system: SK-OV-3 ovarian
SF-295 CNS = system: SF-295 CNS
DLD-1 colon = system: DLD-1 colon
KM12 colon = system: KM12 colon
EKVX NSCLC = system: EKVX NSCLC
HOP-18 NSCLC = system: HOP-18 NSCLC
HCC-2998 colon = system: HCC-2998 colon
SNB-75 CNS = system: SNB-75 CNS
TK-10 renal = system: TK-10 renal
HT29 colon = system: HT29 colon
UACC-257 melanoma = system: UACC-257 melanoma
NCI-H226 lung = system: NCI-H226 lung
SK-MEL-5 melanoma = system: SK-MEL-5 melanoma
RXF 393 renal = system: RXF 393 renal
HL-60(TB) leukemia = system: HL-60(TB) leukemia
SK-MEL-28 melanoma = system: SK-MEL-28 melanoma
MOLT-4 leukemia = system: MOLT-4 leukemia
UACC-62 melanoma = system: UACC-62 melanoma
LOX IMVI melanoma = system: LOX IMVI melanoma
M19-MEL melanoma = system: M19-MEL melanoma
RPMI-8226 leukemia = system: RPMI-8226 leukemia
NCI-H23 lung = system: NCI-H23 lung
OVCAR-3 ovarian = system: OVCAR-3 ovarian
SN12C renal = system: SN12C renal
COLO 205 colon = system: COLO 205 colon
HOP-62 NSCLC = system: HOP-62 NSCLC
OVCAR-4 ovarian = system: OVCAR-4 ovarian
SR leukemia = system: SR leukemia
SK-MEL-2 melanoma = system: SK-MEL-2 melanoma
RXF-631 renal = system: RXF-631 renal
SF-268 CNS = system: SF-268 CNS
NCI-H460 lung = system: NCI-H460 lung
KM20L2 colon = system: KM20L2 colon
XF 498 CNS = system: XF 498 CNS
ACHN renal = system: ACHN renal
A498 renal = system: A498 renal

Cc1[nH]nc2c1C(=O)C=C(N(CCO)c1ccccc1)C2=O
> 100 µM: TGI (OVCAR-8 ovarian) | TGI (786-0 renal) | TGI (DMS 114 small cell lung) | TGI (HOP-92 NSCLC) | TGI (A549 NSCLC) | TGI (CAKI-1 renal) | TGI (CCRF-CEM leukemia) | TGI (U251 CNS) | TGI (IGROV1 ovarian) | TGI (SW-620 colon) | TGI (K-562 leukemia) | TGI (NCI-H522 lung) | TGI (UO-31 renal) | TGI (HCT-116 colon) | TGI (SNB-19 CNS) | TGI (SF-539 CNS) | TGI (M14 melanoma) | TGI (HCT-15 colon) | TGI (SNB-78 CNS) | TGI (LXFL 529 NSCLC) | TGI (DMS 273 small cell lung) | TGI (MALME-3M melanoma) | TGI (SK-OV-3 ovarian) | TGI (SF-295 CNS) | TGI (DLD-1 colon) | TGI (KM12 colon) | TGI (EKVX NSCLC) | TGI (HOP-18 NSCLC) | TGI (HCC-2998 colon) | TGI (SNB-75 CNS) | TGI (TK-10 renal) | TGI (HT29 colon) | TGI (UACC-257 melanoma) | TGI (NCI-H226 lung) | TGI (SK-MEL-5 melanoma) | TGI (RXF 393 renal) | TGI (HL-60(TB) leukemia) | TGI (SK-MEL-28 melanoma) | TGI (MOLT-4 leukemia) | TGI (UACC-62 melanoma) | TGI (LOX IMVI melanoma) | TGI (M19-MEL melanoma) | TGI (RPMI-8226 leukemia) | TGI (NCI-H23 lung) | TGI (OVCAR-3 ovarian) | TGI (SN12C renal) | TGI (COLO 205 colon)

Cc1c2n(c3ccccc13)CC1CON(C)C21 (centres undefined)
> 100 µM: TGI (786-0 renal) | TGI (DMS 114 small cell lung) | TGI (HOP-92 NSCLC) | TGI (CAKI-1 renal) | TGI (CCRF-CEM leukemia) | TGI (HOP-62 NSCLC) | TGI (IGROV1 ovarian) | TGI (K-562 leukemia) | TGI (NCI-H522 lung) | TGI (UO-31 renal) | TGI (HCT-116 colon) | TGI (SF-539 CNS) | TGI (M14 melanoma) | TGI (SNB-78 CNS) | TGI (LXFL 529 NSCLC) | TGI (DMS 273 small cell lung) | TGI (MALME-3M melanoma) | TGI (SK-OV-3 ovarian) | TGI (DLD-1 colon) | TGI (OVCAR-4 ovarian) | TGI (HCC-2998 colon) | TGI (SR leukemia) | TGI (SK-MEL-2 melanoma) | TGI (SNB-75 CNS) | TGI (RXF-631 renal) | TGI (NCI-H226 lung) | TGI (HL-60(TB) leukemia) | TGI (SK-MEL-28 melanoma) | TGI (MOLT-4 leukemia) | TGI (UACC-62 melanoma) | TGI (SF-268 CNS) | TGI (M19-MEL melanoma) | TGI (RPMI-8226 leukemia) | TGI (NCI-H23 lung) | TGI (COLO 205 colon)

Cc1nc2c(n1CCN(C)C)C(=O)c1ccccc1C2=O
48.4 µM: TGI (K-562 leukemia)
26.9 µM: TGI (DLD-1 colon)
24.1 µM: TGI (M14 melanoma)
> 100 µM: TGI (786-0 renal) | TGI (SK-OV-3 ovarian) | TGI (SNB-75 CNS) | TGI (TK-10 renal) | TGI (NCI-H226 lung) | TGI (SK-MEL-28 melanoma)
27.1 µM: TGI (UACC-257 melanoma)
26.5 µM: TGI (IGROV1 ovarian)
78.9 µM: TGI (SNB-78 CNS)
68.2 µM: TGI (RXF 393 renal)
46.3 µM: TGI (SF-539 CNS)
20.4 µM: TGI (SK-MEL-5 melanoma)
43.1 µM: TGI (OVCAR-8 ovarian)
62.1 µM: TGI (MOLT-4 leukemia)
52.8 µM: TGI (A549 NSCLC)
47.7 µM: TGI (HCC-2998 colon)
24.5 µM: TGI (NCI-H23 lung)
73.2 µM: TGI (SR leukemia)
33.1 µM: TGI (XF 498 CNS)
26.2 µM: TGI (SK-MEL-2 melanoma)
29.3 µM: TGI (OVCAR-4 ovarian)
47.1 µM: TGI (CCRF-CEM leukemia)
35.8 µM: TGI (SN12C renal)
32.2 µM: TGI (U251 CNS) | TGI (EKVX NSCLC)
30.7 µM: TGI (HL-60(TB) leukemia)
26 µM: TGI (HCT-15 colon)
78.7 µM: TGI (HOP-62 NSCLC)
29 µM: TGI (SW-620 colon)
45.5 µM: TGI (NCI-H460 lung)
33 µM: TGI (HCT-116 colon)
31.5 µM: TGI (ACHN renal)
30.9 µM: TGI (SF-295 CNS)
4.3 µM: TGI (M19-MEL melanoma)
28.8 µM: TGI (DMS 273 small cell lung)
16.5 µM: TGI (COLO 205 colon)
76.2 µM: TGI (SNB-19 CNS)
39.1 µM: TGI (LOX IMVI melanoma)
37.3 µM: TGI (LXFL 529 NSCLC)
65.1 µM: TGI (HT29 colon)
18.5 µM: TGI (NCI-H522 lung)
20 µM: TGI (OVCAR-3 ovarian)
49 µM: TGI (UO-31 renal)
40.9 µM: TGI (KM12 colon)
72 µM: TGI (SF-268 CNS)
8.06 µM: TGI (MALME-3M melanoma)
25.8 µM: TGI (KM20L2 colon) | TGI (UACC-62 melanoma)

N[C@@H]1CCCC[C@@H]1N.O=C([O-])CN(CP(=O)([O-])[O-])CP(=O)([O-])[O-].[Pt+2]
93.4 µM: TGI (CCRF-CEM leukemia)
inactive: GI50 (OVCAR-8 ovarian) > 100 µM | GI50 (786-0 renal) > 100 µM | GI50 (HOP-92 NSCLC) > 100 µM | GI50 (A549 NSCLC) > 100 µM | GI50 (CAKI-1 renal) > 100 µM | GI50 (CCRF-CEM leukemia) 29 µM | GI50 (HOP-62 NSCLC) > 100 µM | GI50 (U251 CNS) > 100 µM | GI50 (IGROV1 ovarian) > 100 µM | GI50 (SW-620 colon) > 100 µM | GI50 (K-562 leukemia) > 100 µM | GI50 (NCI-H522 lung) > 100 µM | GI50 (UO-31 renal) > 100 µM | GI50 (HCT-116 colon) > 100 µM | GI50 (SNB-19 CNS) > 100 µM | GI50 (SF-539 CNS) > 100 µM | GI50 (M14 melanoma) > 100 µM | GI50 (HCT-15 colon) > 100 µM | GI50 (SNB-78 CNS) > 100 µM | GI50 (LXFL 529 NSCLC) > 100 µM | GI50 (DMS 273 small cell lung) > 100 µM | GI50 (MALME-3M melanoma) > 100 µM | GI50 (SK-OV-3 ovarian) > 100 µM | GI50 (SF-295 CNS) > 100 µM | GI50 (DLD-1 colon) > 100 µM | GI50 (KM12 colon) > 100 µM | GI50 (A498 renal) > 100 µM | GI50 (NCI-H460 lung) > 100 µM | GI50 (OVCAR-4 ovarian) > 100 µM | GI50 (HOP-18 NSCLC) > 100 µM | GI50 (HCC-2998 colon) > 100 µM | GI50 (SK-MEL-2 melanoma) > 100 µM | GI50 (SNB-75 CNS) > 100 µM | GI50 (TK-10 renal) > 100 µM | GI50 (HT29 colon) > 100 µM | GI50 (UACC-257 melanoma) > 100 µM | GI50 (KM20L2 colon) > 100 µM | GI50 (XF 498 CNS) > 100 µM | GI50 (NCI-H226 lung) > 100 µM | GI50 (SK-MEL-5 melanoma) > 100 µM | GI50 (HL-60(TB) leukemia) > 100 µM | GI50 (SK-MEL-28 melanoma) > 100 µM | GI50 (MOLT-4 leukemia) 82.5 µM | GI50 (UACC-62 melanoma) > 100 µM | GI50 (LOX IMVI melanoma) > 100 µM | GI50 (SF-268 CNS) > 100 µM | GI50 (M19-MEL melanoma) > 100 µM | GI50 (RPMI-8226 leukemia) > 100 µM | GI50 (NCI-H23 lung) > 100 µM | GI50 (ACHN renal) > 100 µM | GI50 (OVCAR-3 ovarian) > 100 µM | GI50 (SN12C renal) > 100 µM | GI50 (COLO 205 colon) 50.1 µM
> 100 µM: TGI (OVCAR-8 ovarian) | TGI (786-0 renal) | TGI (HOP-92 NSCLC) | TGI (A549 NSCLC) | TGI (CAKI-1 renal) | TGI (HOP-62 NSCLC) | TGI (U251 CNS) | TGI (IGROV1 ovarian) | TGI (SW-620 colon) | TGI (K-562 leukemia) | TGI (NCI-H522 lung) | TGI (UO-31 renal) | TGI (HCT-116 colon) | TGI (SNB-19 CNS) | TGI (SF-539 CNS) | TGI (M14 melanoma) | TGI (HCT-15 colon) | TGI (SNB-78 CNS) | TGI (LXFL 529 NSCLC) | TGI (DMS 273 small cell lung) | TGI (MALME-3M melanoma) | TGI (SK-OV-3 ovarian) | TGI (SF-295 CNS) | TGI (DLD-1 colon) | TGI (KM12 colon) | TGI (A498 renal) | TGI (NCI-H460 lung) | TGI (OVCAR-4 ovarian) | TGI (HOP-18 NSCLC) | TGI (HCC-2998 colon) | TGI (SK-MEL-2 melanoma) | TGI (SNB-75 CNS) | TGI (TK-10 renal) | TGI (HT29 colon) | TGI (UACC-257 melanoma) | TGI (KM20L2 colon) | TGI (XF 498 CNS) | TGI (NCI-H226 lung) | TGI (SK-MEL-5 melanoma) | TGI (HL-60(TB) leukemia) | TGI (SK-MEL-28 melanoma) | TGI (MOLT-4 leukemia) | TGI (UACC-62 melanoma) | TGI (LOX IMVI melanoma) | TGI (SF-268 CNS) | TGI (M19-MEL melanoma) | TGI (RPMI-8226 leukemia) | TGI (NCI-H23 lung) | TGI (ACHN renal) | TGI (OVCAR-3 ovarian) | TGI (SN12C renal) | TGI (COLO 205 colon)
